In US7297694B2, “Pyridylfurans and pyrroles as Raf kinase inhibitors” (SmithKline Beechum P.L.C., priority 2001, dated 2007):

How the values were obtained:
B-Raf = B-Raf (Homo sapiens, UniProt P15056); assay: Fluorescence Anisotropy Kinase Binding Assay (Assay 1)
Description: Fluorescence Anisotropy Kinase Binding Assay
The concentration of kinase enzyme should preferably be ≧1×Kf. The concentration of fluorescent ligand required will depend on the instrumentation used, and the fluorescent and physicochemical properties. The concentration used must be lower than the concentration of kinase enzyme, and preferably less than half the kinase enzyme concentration. A typical protocol is:
All compounds are serially diluted in DMSO, then by a one step dilution into buffer of comparison, 50 mM HEPES, […] pH7.5, 1 mM CHAPS, 10 mM MgCL2, for the assay.
B-Raf Enzyme concentration: 1 nM
Fluorescent ligand concentration: 0.5 nM
Test compound concentration: 0.5 nM -100 uM
Components incubated in 10 ul final volume in LJL HE 384 type B black microtitre plate until equilibrium reached (Over 3 h, up to 30 h)
Fluorescence anisotropy read in an LJL Acquest.
• Ki=dissociation constant for inhibitor binding • Kf=dissociation constant for fluorescent ligand binding
The fluorescent ligand is the following compound:
which is derived from 5-[2-(4-aminomethylphenyl)-5-pyridin-4-yl]-1H-imidazol4-yl]-2-chlorophenol and rhodamine green.

human melanoma SKMEL3 = assay: Methylene Blue Growth Inhibition Assay (Assay 2), SKMEL3; assay type: cell-based; details: SK-MEL3, B-Raf V599E, Ras wt
human melanoma SKMEL2 = assay: Methylene Blue Growth Inhibition Assay (Assay 2), SKMEL2; assay type: cell-based; details: SK-MEL-2, B-Raf wt, [Q6IR]N-Ras
[1] = test system: colon carcinoma (Colo 205); assay: Methylene Blue Growth Inhibition Assay (Assay 2), Colo205; assay type: cell-based; details: Homo sapiens, Colorectal cancer, B-Raf V599E, Ras wt
[2] = test system: Human diploid foreskin fibroblasts (HFF); assay: XTT 72 hr Growth Inhibition (Assay 3), HFF; assay type: cell-based; details: Fibroblast, normal, B-Raf wt, Ras wt
Description: (§1) XTT 72 hr Growth Inhibition Protocol for Mammalian Cultured Cells (Assay 3)
(§2) Human diploid foreskin fibroblasts (HFF) or human colon carcinoma (Colo 201) cells were grown in Dulbecco's modified Eagle's medium (DMEM) (Invitrogen/Life Technologies) containing 10% fetal bovine serum (FBS) and the antibiotics penicillin (100 Units/ml) and streotomycin (100 micrograms/ml) (Invitrogen/Life Technologies). Growth was at 37° C. in humidified 5% CO2 incubators in 75 cm^2 plastic flasks. Cells were harvested using 0.25% trypsin/1 mM ethylenediaminetetraacetic acid (EDTA), resuspended in growth medium, and counted using a hemocytometer. Flat-bottomed 96-well plates were seeded with 2×10^3 cells/well in a volume of 200 ul from trypsinized exponentially growing cultures. To “blank” wells, growth medium was added with no additions. Cells were incubated overnight to permit attachment.
(§3) Next day, medium from wells that contained cells was replaced with 180 microliters of fresh medium. Appropriate dilutions of test compounds were added to the wells from stock soloutions of compound dissolved in dimethyl sulfoxide (DMSO); final DMSO concentration in all wells was 0.2%. […] Absorbance at 450 nm was then determined using a 96-well UV plate reader (Molecular Devices). Under these conditions, absorbance of untreated control cells at 450 nm was at least 1.0 optical density unit/ml. […]

[3] = test system: human colon carcinoma (Colo 201) cells; assay: XTT 72 hr Growth Inhibition (Assay 3), Colo201; assay type: cell-based; details: Colorectal cancer, B-Raf ND, Ras ND
Description: as §1, §2, §3

human melanoma A375P = assay: Methylene Blue Growth Inhibition Assay (Assay 2), A375P; assay type: cell-based; details: B-Raf V599E, Ras wt

Chain of B-Raf (P15056 whole entry): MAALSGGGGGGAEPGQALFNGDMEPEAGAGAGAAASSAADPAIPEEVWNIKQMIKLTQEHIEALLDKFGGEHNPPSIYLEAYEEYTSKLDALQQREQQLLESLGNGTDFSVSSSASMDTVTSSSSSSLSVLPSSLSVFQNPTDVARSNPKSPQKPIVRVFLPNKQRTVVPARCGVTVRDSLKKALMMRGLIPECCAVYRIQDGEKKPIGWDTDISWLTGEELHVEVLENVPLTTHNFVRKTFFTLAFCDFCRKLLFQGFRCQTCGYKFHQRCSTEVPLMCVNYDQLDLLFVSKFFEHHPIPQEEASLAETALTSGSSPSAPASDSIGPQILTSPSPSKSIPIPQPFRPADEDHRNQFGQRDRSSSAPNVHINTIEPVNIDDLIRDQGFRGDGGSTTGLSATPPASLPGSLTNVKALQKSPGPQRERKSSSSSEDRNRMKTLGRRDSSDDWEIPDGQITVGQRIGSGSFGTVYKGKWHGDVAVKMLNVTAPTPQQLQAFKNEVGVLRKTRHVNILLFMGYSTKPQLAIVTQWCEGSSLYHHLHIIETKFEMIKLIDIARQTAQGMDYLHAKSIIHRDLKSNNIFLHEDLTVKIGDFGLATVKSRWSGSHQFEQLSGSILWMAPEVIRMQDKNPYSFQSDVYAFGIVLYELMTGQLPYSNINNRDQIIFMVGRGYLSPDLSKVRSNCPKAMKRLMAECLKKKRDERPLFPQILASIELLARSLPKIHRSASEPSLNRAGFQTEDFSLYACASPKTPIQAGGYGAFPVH

CN(C)CCOc1ccc(-c2cc(-c3ccc4c(c3)CCC4=NO)c(-c3ccncc3)o2)cc1 [Example 4, 5-{5-[4-(2-Dimethylaminoethoxy)phenyl]-2-pyridin-4yl-furan-3-yl}indan-1-one oxime]
Kd (B-Raf): 1 nM
IC50 (human melanoma SKMEL3): 1000 nM
IC50 (human melanoma SKMEL2): 220 nM
IC50 [1]: 110 nM
IC50 [2]: 7100 nM
IC50 [3]: 500 nM
IC50 (human melanoma A375P): 81 nM
